Source: patent publication US11883395B2 (priority 2020, dated 2024)

Test system: human coronavirus (hCOV)-OC43
Format: cell-based

O=C1O[C@H]2[C@@H]3OC(=O)c4cc(O)c(O)c(O)c4-c4c(O)c(O)c5oc(=O)c6c(c(O)c(O)c7oc(=O)c4c5c76)-c4c(cc(O)c(O)c4O)C(=O)OC[C@H]3OC(O)[C@@H]2OC(=O)c2cc(O)c(O)c(O)c2-c2c1cc(O)c(O)c2O (mixture of isomers) [punicalagin]
significantly decreased: hCoV-OC43 envelope protein mRNA level | hCoV-OC43 membrane protein mRNA level | hCoV-OC43 spike protein mRNA level

O=C(C1CC1)N1CCN(Cn2sc3ccccc3c2=O)CC1 [LOC13, 2-[[4-(cyclopropylcarbonyl)-1-piperazinyl]methyl]-1,2-benzisothiazol-3(2H)-one]
significantly decreased: hCoV-OC43 envelope protein mRNA level | hCoV-OC43 membrane protein mRNA level | hCoV-OC43 spike protein mRNA level
